From article PMC11449226, “Characterization of a β-carotene isomerase from the cyanobacterium Cyanobacteria aponinum” (Philosophical Transactions of the Royal Society B: …, 2024)

Molecular target: T1, CaD27 (Cyanobacterium aponinum, UniProt K9Z764)
T1 construct: gene Cyan10605_2981; thioredoxin fusion (pThio-Dan1-CaD27(-cTP)) in E. coli BL21(DE3) with pGro7 chaperones; crude lysate; Pfam PF13225 family
T1 sequence (K9Z764 1-216): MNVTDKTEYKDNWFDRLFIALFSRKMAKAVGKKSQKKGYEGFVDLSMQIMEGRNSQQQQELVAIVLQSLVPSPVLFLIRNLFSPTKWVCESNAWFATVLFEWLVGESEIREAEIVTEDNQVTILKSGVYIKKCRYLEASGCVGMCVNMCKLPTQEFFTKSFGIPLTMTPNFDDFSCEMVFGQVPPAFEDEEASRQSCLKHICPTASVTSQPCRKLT
Experiment: isomerization assay, UHPLC
Type: biochemical
Settings: crude lysate of E. coli expressing thioredoxin-CaD27, compared with thioredoxin control

Structure (SMILES)	isomerization assay, UHPLC (product 9-cis-beta-carotene)	isomerization assay, UHPLC (products 9-cis- and 13-cis-beta-carotene, also tested in beta-carotene-accumulating E. coli)
CC1=C(/C=C/C(C)=C/C=C/C(C)=C\C=C\C=C(C)\C=C\C=C(C)\C=C\C2=C(C)CCCC2(C)C)C(C)(C)CCC1 [13-cis-β-carotene]	thioredoxin-CaD27 converted 13-cis-β-carotene into 9-cis-β-carotene	
CC1=C(/C=C/C(C)=C/C=C/C(C)=C/C=C/C=C(C)/C=C/C=C(C)/C=C/C2=C(C)CCCC2(C)C)C(C)(C)CCC1 [all-trans-β-carotene]		we only detected the isomerization of all-trans-β-carotene into 9-cis, and 13-cis-β-carotene
